Source: PubChem BioAssay AID330 (DTP/NCI, 2004)
Where “and” joins values, the source holds several entries; their conditions need not be identical. Equal values may be shown once. Toxic doses and inconclusive results are not listed.

Tested on: P388 leukemia ip, CD2F1 mice, survival T/C
Experiment: NCI In Vivo Anticancer Drug Screen. Data for tumor model P388 Leukemia (intraperitoneal) in CD2F1 (CDF1) mice
Conditions: endpoint: median survival time, higher = longer survival
In short: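 Mice carrying the transplanted tumor received test compound or vehicle. Survival was recorded in each group, and the value is the treated-group measurement divided by that of the vehicle-treated control group.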

[1] = dose: 50.0 mg/kg/injection, schedule: Q01DX009 (ip), vehicle: Klucel (hydroxypropylcellulose) (HPC)
[2] = dose: 100.0 mg/kg/injection, schedule: Q01DX009 (ip), vehicle: Klucel (hydroxypropylcellulose) (HPC)
[3] = dose: 200.0 mg/kg/injection, schedule: Q01DX009 (ip), vehicle: Klucel (hydroxypropylcellulose) (HPC)
[4] = dose: 50.0 mg/kg/injection, schedule: Q01DX005 (ip), vehicle: saline with Tween-80
[5] = dose: 100.0 mg/kg/injection, schedule: Q01DX005 (ip), vehicle: saline with Tween-80
[6] = dose: 200.0 mg/kg/injection, schedule: Q01DX005 (ip), vehicle: saline with Tween-80
[7] = dose: 50.0 mg/kg/injection, schedule: Q01DX005 (ip), vehicle: Klucel (hydroxypropylcellulose) (HPC)
[8] = dose: 100.0 mg/kg/injection, schedule: Q01DX005 (ip), vehicle: Klucel (hydroxypropylcellulose) (HPC)
[9] = dose: 200.0 mg/kg/injection, schedule: Q01DX005 (ip), vehicle: Klucel (hydroxypropylcellulose) (HPC)
[10] = dose: 60.0 mg/kg/injection, schedule: Q01DX005 (ip), vehicle: saline with Tween-80
[11] = dose: 120.0 mg/kg/injection, schedule: Q01DX005 (ip), vehicle: saline with Tween-80
[12] = dose: 240.0 mg/kg/injection, schedule: Q01DX005 (ip), vehicle: saline with Tween-80
[13] = dose: 25.0 mg/kg/injection, schedule: Q01DX009 (ip), vehicle: saline with Tween-80
[14] = dose: 50.0 mg/kg/injection, schedule: Q01DX009 (ip), vehicle: saline with Tween-80
[15] = dose: 100.0 mg/kg/injection, schedule: Q04DX003 (ip), vehicle: saline with Tween-80
[16] = dose: 200.0 mg/kg/injection, schedule: Q04DX003 (ip), vehicle: saline with Tween-80
[17] = dose: 50.0 mg/kg/injection, schedule: Q04DX003 (ip), vehicle: saline with Tween-80

CCCCCCCCC(=O)c1c(OC)oc(/C=N/NC(N)=O)cc1=O
T/C (dose: 25.0 mg/kg/injection, schedule: Q01DX009 (ip), vehicle: Klucel (hydroxypropylcellulose) (HPC)): 92 % of control | T/C [1]: 89 % of control | T/C [2]: 92 % of control | T/C [3]: 91 % of control

CCOC(=O)Nc1c(CC(C)O)n[nH]c1C (stereo not drawn)
T/C [4]: 110 % of control | T/C [5]: 100 % of control | T/C [6]: 96 % of control

CC[C@]1(O)CC(OC2CC(N(C)C)C(O)C(C)O2)c2c(cc3c(c2O)C(=O)c2c(O)cccc2C3=O)[C@@H]1C(=O)OC (stereo partly drawn)
T/C [7]: 95 % of control | T/C [8]: 96 % of control | T/C [9]: 97 % of control

CCC(c1ccc(O)cc1)C(CC)c1ccc(O)c(CN(C)C)c1 (stereo not drawn)
T/C (dose: 15.0 mg/kg/injection, schedule: Q01DX005 (ip), vehicle: saline with Tween-80): 100 % of control | T/C (dose: 30.0 mg/kg/injection, schedule: Q01DX005 (ip), vehicle: saline with Tween-80): 100 % of control | T/C [10]: 96 % of control | T/C [11]: 94 % of control

COc1cccc2c1CCC(=O)C2C (stereo not drawn)
T/C [7]: 107 % of control | T/C [8]: 100 % of control | T/C [9]: 104 % of control

NC(=O)C(=O)NNC(=O)CCn1[nH]c(=O)c(Cl)c(Cl)c1=O
T/C [10]: 100 % of control | T/C [11]: 103 % of control | T/C [12]: 98 % of control

Cc1cn(C23CC4CC(CC(C4)C2)C3)c(=O)[nH]c1=O
T/C [7]: 101 % of control | T/C [8]: 101 % of control | T/C [9]: 97 % of control

CC1OC(Oc2ccc3c(=O)c(-c4ccc(O)cc4)coc3c2)C(O)C(O)C1O (stereo not drawn)
T/C [10]: 103 % of control | T/C [11]: 103 % of control | T/C [12]: 103 % of control

O=C1CCCCCCCNC(=O)CCCCCCC(=O)NCCCCCCCC(=O)NCCCCCCCCN1
T/C (dose: 50.0 mg/kg/injection, schedule: Q01DX001 (ip), vehicle: Klucel (hydroxypropylcellulose) (HPC)): 91 % of control | T/C (dose: 100.0 mg/kg/injection, schedule: Q01DX001 (ip), vehicle: Klucel (hydroxypropylcellulose) (HPC)): 90 % of control | T/C (dose: 200.0 mg/kg/injection, schedule: Q01DX001 (ip), vehicle: Klucel (hydroxypropylcellulose) (HPC)): 86 % of control and 89 % of control | T/C (dose: 400.0 mg/kg/injection, schedule: Q01DX001 (ip), vehicle: Klucel (hydroxypropylcellulose) (HPC)): 89 % of control

N#CC(C#N)=C(c1ccccc1)c1ccccc1
T/C [1]: 95 % of control | T/C [2]: 110 % of control | T/C [3]: 100 % of control

CC(C)COC1CC(C)(C)c2c(-c3ccccc3)nn(-c3ccccc3)c2O1 (stereo not drawn)
T/C (dose: 12.5 mg/kg/injection, schedule: Q01DX009 (ip), vehicle: saline with Tween-80): 93 % of control | T/C [13]: 93 % of control | T/C [14]: 88 % of control and 93 % of control

SC1CCCN(Cc2ccccc2)C1 (stereo not drawn)
T/C [4]: 117 % of control | T/C [5]: 108 % of control | T/C [6]: 110 % of control

O=C1CCC(=O)N2c3ccccc3-c3ccccc3N12
T/C [14]: 95 % of control | T/C (dose: 100.0 mg/kg/injection, schedule: Q01DX009 (ip), vehicle: saline with Tween-80): 93 % of control | T/C (dose: 200.0 mg/kg/injection, schedule: Q01DX009 (ip), vehicle: saline with Tween-80): 93 % of control

O=NNc1ncnc2c1ncn2Cc1ccccc1
T/C (dose: 3.12 mg/kg/injection, schedule: Q01DX009 (ip), vehicle: water): 103 % of control | T/C (dose: 6.25 mg/kg/injection, schedule: Q01DX009 (ip), vehicle: water): 100 % of control | T/C (dose: 12.5 mg/kg/injection, schedule: Q01DX009 (ip), vehicle: water): 112 % of control | T/C (dose: 25.0 mg/kg/injection, schedule: Q01DX009 (ip), vehicle: water): 112 % of control | T/C (dose: 50.0 mg/kg/injection, schedule: Q01DX009 (ip), vehicle: water): 112 % of control

CC(=O)O[C@@H]1[C@@H](O)C2=C3[C@]4(C)[C@@H]1C(C)(C)C(=O)C[C@@H]4[C@]3(O)[C@H](OC(C)=O)[C@@]1(C[C@@H]1C)C2=O
T/C (dose: 25.0 mg/kg/injection, schedule: Q01DX009 (ip), vehicle: other): 118 % of control | T/C [13]: 115 % of control

C=C(OC(=O)CN(C)C)c1ccccc1
T/C [15]: 98 % of control | T/C [16]: 100 % of control | T/C (dose: 400.0 mg/kg/injection, schedule: Q04DX003 (ip), vehicle: saline with Tween-80): 94 % of control

N#Cc1c(-c2ccc(Cl)cc2)cn2c1[nH]c(=O)c1cc(Br)ccc12
T/C [10]: 99 % of control | T/C [11]: 102 % of control | T/C [12]: 95 % of control

CC(NCCO)C(O)c1ccccc1 (stereo not drawn)
T/C (dose: 100.0 mg/kg/injection, schedule: Q01DX009 (ip), vehicle: saline): 90 % of control | T/C (dose: 200.0 mg/kg/injection, schedule: Q01DX009 (ip), vehicle: saline): 98 % of control

C[CH2][Sn]([CH2]C)([O]S(C)(=O)=O)[O]S(C)(=O)=O
T/C (dose: 1.56 mg/kg/injection, schedule: Q04DX003 (ip), vehicle: saline): 114 % of control | T/C (dose: 6.25 mg/kg/injection, schedule: Q04DX003 (ip), vehicle: saline): 117 % of control and 118 % of control | T/C (dose: 12.5 mg/kg/injection, schedule: Q04DX003 (ip), vehicle: saline): 164 % of control

O=NN(CCCl)C(=O)OCc1ccccc1
T/C (dose: 3.12 mg/kg/injection, schedule: Q01DX001 (ip), vehicle: saline with Tween-80): 101 % of control | T/C (dose: 6.25 mg/kg/injection, schedule: Q01DX001 (ip), vehicle: saline with Tween-80): 100 % of control and 123 % of control | T/C (dose: 12.5 mg/kg/injection, schedule: Q01DX001 (ip), vehicle: saline with Tween-80): 108 % of control and 113 % of control | T/C (dose: 25.0 mg/kg/injection, schedule: Q01DX001 (ip), vehicle: saline with Tween-80): 110 % of control and 123 % of control

CC(C)(C)OC(=O)NC(Cc1c[nH]c2ccccc12)C(=O)O (stereo not drawn)
T/C [7]: 102 % of control | T/C [8]: 101 % of control | T/C [9]: 101 % of control

O=c1[nH]cc(COCC(F)(F)F)c(=O)[nH]1
T/C [17]: 99 % of control | T/C [15]: 111 % of control

Cc1onc(-c2c(Cl)cccc2Cl)c1C(=O)OCCOc1ccc(C(F)(F)F)cc1[N+](=O)[O-]
T/C [10]: 91 % of control | T/C [11]: 98 % of control | T/C [12]: 92 % of control

COc1cccc(C2c3cc4c(cc3OC(C)(N3CCCC3)C2C)OCO4)c1O (stereo not drawn)
T/C [10]: 99 % of control | T/C [11]: 102 % of control | T/C [12]: 89 % of control

COC(=O)C1(C2CCCCCCC2=O)NC(=S)NC(=O)C1C#N (stereo not drawn)
T/C [10]: 92 % of control | T/C [11]: 99 % of control | T/C [12]: 99 % of control

COc1cc(NCCC2CCCCN2)c2ncccc2c1 (stereo not drawn)
T/C (dose: 6.25 mg/kg/injection, schedule: Q01DX005 (ip), vehicle: saline): 100 % of control | T/C (dose: 12.5 mg/kg/injection, schedule: Q01DX005 (ip), vehicle: saline): 100 % of control

Cc1c2c[n+]([O-])ccc2c(C)c2c1c1ccccc1n2C
T/C (dose: 12.5 mg/kg/injection, schedule: Q04DX002 (ip), vehicle: saline with Tween-80): 101 % of control | T/C (dose: 25.0 mg/kg/injection, schedule: Q04DX002 (ip), vehicle: saline with Tween-80): 101 % of control | T/C (dose: 50.0 mg/kg/injection, schedule: Q04DX002 (ip), vehicle: saline with Tween-80): 103 % of control | T/C (dose: 100.0 mg/kg/injection, schedule: Q04DX002 (ip), vehicle: saline with Tween-80): 107 % of control | T/C (dose: 200.0 mg/kg/injection, schedule: Q04DX002 (ip), vehicle: saline with Tween-80): 113 % of control

NNC1=NCCS1
T/C (dose: 0.31 mg/kg/injection, schedule: Q01DX009 (ip), vehicle: saline with Tween-80): 101 % of control | T/C (dose: 0.62 mg/kg/injection, schedule: Q01DX009 (ip), vehicle: saline with Tween-80): 98 % of control | T/C (dose: 1.25 mg/kg/injection, schedule: Q01DX009 (ip), vehicle: saline with Tween-80): 104 % of control

CCOC(=O)CCC(Cl)(Cl)Cl
T/C [1]: 100 % of control | T/C [2]: 100 % of control | T/C [3]: 97 % of control

COc1cc2c(/C=N/NC(N)=S)c(Cl)[nH]c2cc1C
T/C (dose: 25.0 mg/kg/injection, schedule: Q04DX003 (ip), vehicle: saline with Tween-80): 105 % of control | T/C [17]: 107 % of control | T/C (dose: 100.0 mg/kg/injection, schedule: Q01DX001 (ip), vehicle: saline with Tween-80): 102 % of control | T/C [15]: 90 % of control | T/C (dose: 200.0 mg/kg/injection, schedule: Q01DX001 (ip), vehicle: saline with Tween-80): 100 % of control | T/C [16]: 98 % of control | T/C (dose: 400.0 mg/kg/injection, schedule: Q01DX001 (ip), vehicle: saline with Tween-80): 90 % of control
